Laboratory results published in patent publication US10231456B2, “Methods and compositions for controlling weed infestation and improving grass quality” (BAYER CROPSCIENCE LP, priority 2012, dated 2019).

Key:
dallisgrass = assay: Post-emergence field plot test, % damage to natural dallisgrass infestation; assay type: in vivo, dallisgrass (Paspalum dilatatum); settings: with non-ionic surfactant, rates g/ha foram 28.78, TCM 15, halo 69.9; for Trial 1 (16 WAT) % damage: 16 weeks after treatment; for Trial 2 (42 DAA) % damage: 42 days after application; for Trial 3 (48 DAA) % damage: 48 days after application
From the text: Plots approximately 2-4.6 m^2 in size are contain a natural infestion of the weed dallisgrass. Using a CO2 propelled backpack sprayer, thiencarbazone-methyl (TCM), foramsulfuron (foram), and halosulfuron-methyl (halo) are applied on their own and in a combination, by post-emergence method, to the dallisgrass, at the application rates specified. The application rates for each compound and combination are equivalent to each other. All treatments included a non-ionic surfactant. After 42 days, 48 days, and 16 weeks after treatment, the degree of damage to the plants is rated in % damage in comparison to the development of the untreated control.
(§1) The FIGURES denote: • 0%=no effect (like untreated control) • 100%=total destruction.

Tall Fescue = assay: Glasshouse post-emergence test, % damage to Tall Fescue; assay type: in vivo, tall fescue (Schedonorus phoenix/Festuca arundinacea); settings: NIS 0.25 % V/V
From the text: Glasshouse plots approximately 1.1 m^2 in size are planted with the weed Tall Fescue. Using a 1 nozzle motorized track sprayer, thiencarbazone-methyl (BYH18636), foramsulfuron (Revolver●), and halosulfuron-methyl (Sedgehammer●) are applied on their own and in combination with each other (a combination of thiencarbazone-methyl, foramsulfuron, and halosulfuron-methyl is SP 102000025052), by post-emergence method, to the weed Tall Fescue, at the application rates specified. The application rates for each compound and combination are equivalent to each other.
After 14 and 27 days after treatment, the degree of damage to the plants is rated in % damage in comparison to the development of the untreated control.
as §1

[1] = higher rates: TCM 22.2, foram 44.37, halo 69 G A/HA (blend 135.6 G A/HA, 3.2 OZ/A)
[2] = lower rates: TCM 14.58, foram 29.12, halo 45.3 G A/HA (blend 89 G A/HA, 2.1 OZ/A)

| SMILES | Trial 1 (16 WAT) % damage (dallisgrass) [%] | Trial 2 (42 DAA) % damage (dallisgrass) [%] | Trial 3 (48 DAA) % damage (dallisgrass) [%] | 0 DAA % damage (Tall Fescue; [1]) [%] | 0 DAA % damage (Tall Fescue; [2]) [%] | 14 DAA % damage (Tall Fescue; [1]) [%] | 14 DAA % damage (Tall Fescue; [2]) [%] | 27 DAA % damage (Tall Fescue; [1]) [%] | 27 DAA % damage (Tall Fescue; [2]) [%] |
| --- | --- | --- | --- | --- | --- | --- | --- | --- | --- |
| COc1cc(OC)nc(NC(=O)NS(=O)(=O)c2cc(NC=O)ccc2C(=O)N(C)C)n1 [foramsulfuron] | 31.5 | 76.7 | 35 |  |  |  |  |  |  |
| COC(=O)c1c(Cl)nn(C)c1S(=O)(=O)NC(=O)Nc1nc(OC)cc(OC)n1 [halosulfuron-methyl] | 0 | 0 | −9 |  |  |  |  |  |  |
| COC(=O)c1csc(C)c1S(=O)(=O)NC(=O)n1nc(OC)n(C)c1=O [thiencarbazone-methyl] | 85.25 | 65 | 51 | 0 | 0 | 42.5 | 26.3 | 75 | 52.5 |
